The target of data set [1] is T1, Malate dehydrogenase, mitochondrial (Sus scrofa, UniProt P00346).
T1 sequence (P00346 whole entry): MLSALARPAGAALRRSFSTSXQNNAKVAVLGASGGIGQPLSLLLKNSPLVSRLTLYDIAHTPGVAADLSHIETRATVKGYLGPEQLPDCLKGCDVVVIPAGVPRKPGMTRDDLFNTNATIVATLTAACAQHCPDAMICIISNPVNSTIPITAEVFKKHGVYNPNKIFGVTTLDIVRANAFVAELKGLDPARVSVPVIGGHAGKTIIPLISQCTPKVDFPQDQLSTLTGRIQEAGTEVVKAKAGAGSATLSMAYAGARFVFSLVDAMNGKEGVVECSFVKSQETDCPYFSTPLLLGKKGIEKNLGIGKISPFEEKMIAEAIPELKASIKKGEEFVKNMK
Kind of data set: Fold increase in IC50 vs malate dehydrogenase (MDH) with 1 mg/ml saponin; increase.

For data set [2], the target named is Chymotrypsinogen A (Bos taurus) (UniProt P00766). Kind of data set: Compound was tested for the inhibition of Chymotrypsinogen at 400 uM.
In data set [3] the target is T2, Beta-lactamase (Escherichia coli K-12, UniProt P00811). The experiment in a line: Compound was tested for the inhibition of beta-lactamase.
T2 sequence (P00811 whole entry): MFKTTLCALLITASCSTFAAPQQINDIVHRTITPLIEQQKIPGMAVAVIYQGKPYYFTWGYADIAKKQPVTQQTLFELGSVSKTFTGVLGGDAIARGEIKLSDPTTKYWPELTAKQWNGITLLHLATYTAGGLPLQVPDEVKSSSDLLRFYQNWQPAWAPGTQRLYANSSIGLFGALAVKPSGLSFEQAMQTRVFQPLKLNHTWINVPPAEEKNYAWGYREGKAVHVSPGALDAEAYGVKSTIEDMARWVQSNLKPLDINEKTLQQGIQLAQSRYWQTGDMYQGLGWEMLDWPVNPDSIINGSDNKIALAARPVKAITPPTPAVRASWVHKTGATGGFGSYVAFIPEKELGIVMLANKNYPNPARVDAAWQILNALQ
Data set [4] is described as follows: Mean maximal plasma concentration. In kind it is ADME, organism-based.
For data set [5], the target named is T2, Beta-lactamase. Kind of data set: Effect of pre-incubation with enzyme on the inhibition of beta-lactamase:No inhibition.
The target in data set [6] is T3, Chymotrypsinogen A (Bos taurus, UniProt P00766). Kind of data set: Compound was tested for the inhibition of Chymotrypsinogen.
In data set [7] the target is T2, Beta-lactamase. The experiment in a line: Compound was tested for the inhibition beta-lactamase with 0.1 mg/ml saponin:No inhibition.
The target in data set [8] is T2, Beta-lactamase. The experiment in a line: Effect of increase in enzyme concentration by 10 times on the inhibition of beta-lactamase by the compound:No inhibition.
Data set [9] deals with Chymotrypsinogen A (Bos taurus) (UniProt P00766). The experiment in a line: Compound was tested for the inhibition of Chymotrypsinogen at 250 uM (Inhibition is time dependent).
Data set [10] has as its target T4, Malate dehydrogenase, cytoplasmic (Homo sapiens) (UniProt P40925).
T4 sequence (whole entry): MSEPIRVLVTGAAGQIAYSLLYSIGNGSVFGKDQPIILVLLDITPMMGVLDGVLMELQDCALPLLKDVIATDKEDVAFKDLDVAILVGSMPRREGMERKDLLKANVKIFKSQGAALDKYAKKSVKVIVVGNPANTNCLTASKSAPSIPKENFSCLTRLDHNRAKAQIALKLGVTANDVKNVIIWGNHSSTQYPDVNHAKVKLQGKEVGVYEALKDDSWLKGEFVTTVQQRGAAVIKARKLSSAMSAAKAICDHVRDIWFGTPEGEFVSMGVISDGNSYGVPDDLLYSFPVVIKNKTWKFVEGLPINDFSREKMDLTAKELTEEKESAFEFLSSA
The experiment in a line: Inhibition of malate dehydrogenase (MDH) at 400 uM.

For data set [11], the target named is Beta-lactamase (Escherichia coli K-12) (UniProt P00811). Kind of data set: Inhibition of beta-lactamase at 100 uM.
Sequence of Beta-lactamase (Escherichia coli K-12) (P00811 whole entry): as the sequence (P00811 whole entry) above
The target in data set [12] is T3, Chymotrypsinogen A. Kind of data set: Fold decrease in IC50 vs chymotrypsinogen on pre-incubation; increase.
The nature of data set [13]: Topical dosage on […] scabies. In kind it is functional.
For data set [14], the target named is T1, Malate dehydrogenase, mitochondrial. Kind of data set: Fold decrease in IC50 vs malate dehydrogenase (MDH) on pre-incubation; no change.

pIC50: −log10 of the molar value.

For `Cc1cccc(Nc2ccccc2C(=O)O)c1C` [MEFENAMIC ACID], the IC50 result in [1] is reported as “increase”. This compound also came in with an inhibition in data set [2] of 41%. Further, in data set [3], the pIC50 was 3.46. For the same compound, in data set [4], the peak level (Cmax) was 83 µM.
As for `OC(Cn1cncn1)(Cn1cncn1)c1ccc(F)cc1F` [FLUCONAZOLE], the IC50 result in data set [5], in [7] and in data set [8] was “Not Active” each time. Besides, the pIC50 in [6] and in data set [3] was < 3.40 each time.
In the case of `CC(C)[N+](C)(CCOC(=O)C1c2ccccc2Oc2ccccc21)C(C)C`, the inhibition is 96% in data set [9], < 5% in [10] and < 5% in data set [11].
As for `O=C(O)CCc1nc(-c2ccccc2)c(-c2ccccc2)o1` [OXAPROZIN], the IC50 result in data set [12] was “Increase”. Also, the pIC50 in [6] was 3.70; in data set [3], < 3.40. In [4], this compound yielded a Cmax of 372 µM.
On to `CC(=O)N1CCN(c2ccc(OCC3COC(Cn4ccnc4)(c4ccc(Cl)cc4Cl)O3)cc2)CC1` (configuration not stated) [KETOCONAZOLE], for which the IC50 entry in data set [5], in [7] and in data set [8] was “Not Active” in each case. Also, the pIC50 in data set [6] and in data set [3] was < 3.82 in each case.
Compound `O=C(OCc1ccccc1)c1ccccc1` [BENZYL BENZOATE] registered a Topical dosage in data set [13] of 1.2 M. The pIC50 in data set [6] was 3.60; in data set [3] it was 4.05.
For `COC(=O)C1=C(C)NC(C)=C(C(=O)OCCN(C)Cc2ccccc2)C1c1cccc([N+](=O)[O-])c1` (configuration not stated) [NICARDIPINE], the IC50 entry in data set [14] is given as “Not Active”. In data set [6], this compound showed a pIC50 of 3.76. The same compound displayed a maximum concentration (Cmax) in [4] of 0.184 µM.

(Values after ChEMBL document CHEMBL1145124, “Identification and prediction of promiscuous aggregating inhibitors among known drugs” (J Med Chem, 2003).)
